Measurements as given in PMC8713164, “Development of a 1,2,4-Triazole-Based Lead Tankyrase Inhibitor: Part II” (Journal of Medicinal Chemistry, 2021).
≈ marks a conversion by molar mass, not a printed value. Like-named read-outs stand apart in the source and are kept apart here.

Key:
kinetic solubility = assay type: physicochemical; conditions: PBS pH = 7
Method: Kinetic solubility, microsomal stability, and plasma stability were determined following our internal protocol (Symeres). The Caco-2 and PPB determinations were performed by Cyprotex.

[1] = mouse peroral pharmacokinetic analysis; assay type: in vivo; conditions: mouse PO 5 mg/kg; for AUC(0-inf) at 24 h / AUC(0-t) at 24 h / Cmax at 24 h / Tmax at 24 h / half-life at 24 h / MRT inf at 24 h: IRC, in vivo; for MRT inf at 24 h: read-out: MRT 0 → ∞
Method: The pharmacokinetic analyses in mice were performed according to the standard protocols of Medicilon as previously described[21] following approval by local animal experiment authorities (Shanghai, China) and in compliance with FELASA guidelines and recommendations. Three IRC mice were used per treatment group: 5 mg/kg 24 in 5% DMSO, 50% PEG400 (both Sigma-Aldrich), and 45% saline as vehicle.

WNT/β-catenin signaling [2] = test: cellular (HEK293) WNT/β-catenin signaling luciferase reporter assay; assay type: cell-based, human; conditions: triplicates, 24: averages of multiple independent measurements
TNKS2 = biological target: T1, TNKS2 (Homo sapiens, UniProt Q9H2K2); test: TNKS2 biochemical assay (unreacted NAD+ fluorescence); conditions: TNKS2 5 nM, 500 nM NAD+, 20 h; quadruplicates; 95% confidence intervals in parentheses; 24: averages of multiple independent measurements; read-out: IC50 TNKS2
T1 construct: TNKS2 (residues 873–1162); made in house
T1 sequence (Q9H2K2 873-1162): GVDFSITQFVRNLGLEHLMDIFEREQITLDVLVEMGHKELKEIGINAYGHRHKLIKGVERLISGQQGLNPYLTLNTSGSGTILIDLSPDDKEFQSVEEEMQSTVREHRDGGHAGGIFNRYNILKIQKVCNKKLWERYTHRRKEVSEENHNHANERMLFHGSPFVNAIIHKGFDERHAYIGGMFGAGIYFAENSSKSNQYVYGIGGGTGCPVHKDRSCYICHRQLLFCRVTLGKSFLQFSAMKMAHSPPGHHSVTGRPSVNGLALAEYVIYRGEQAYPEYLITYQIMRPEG
Method: New compounds were prepared in half-log dilution series, and the reactions were carried out in quadruplicates with protein and compound controls to exclude the effect of compound autofluorescence. All reactions were performed at ambient temperature. TNKS1 (20 nM) or TNKS2 (5 nM) was incubated for 20 h in assay buffer (50 mM Bis-Tris propane (BTP), pH 7.0, 0.5 mM Tris(2-carboxyethyl)phosphine (TCEP), 0.01% Triton X-100) with compound and 10 μM or 500 nM NAD^+, respectively.

COLO 320DM cells = conditions: cited from earlier work
A2A = conditions: 10 μM; cited from earlier work
[3] = design: method as in PMID 32511917; conditions: cited from earlier work
[4] = design: method as in PMID 32511917; conditions: cited from earlier work; remark: listed apart in the source
Caco-2 = conditions: cited from earlier work
[5] = design: method as in PMID 32511917; conditions: PBS pH = 7; cited from earlier work
[6] = tested on: Cerep Safety panel 44 targets; design: method as in PMID 32511917; conditions: 10 μM; cited from earlier work
[7] = mouse PO 5 mg/kg; cited from earlier work
[8] = design: method as in PMID 32511917; conditions: cited from earlier work; remark: listed apart in the source
WNT/β-catenin signaling [9] = conditions: cited from earlier work
[10] = Homo sapiens, HEK293, read-out: IC50 HEK293, HEK293 WNT/β-catenin signaling reporter assay
[11] = read-out: IC50 HEK293, HEK293 WNT/β-catenin signaling reporter assay

Cc1cccc(-c2nnc([C@H]3C[C@H](NC(=O)c4cc(F)cc5nccnc45)C3)n2-c2ccccc2F)n1 [Compound 31b, N-(trans-3-(4-(2-Fluorophenyl)-5-(6-methylpyridin-2-yl)-4H-1,2,4-triazol-3-yl)cyclobutyl)-7-fluoroquinoxaline-5-carboxamide] gave a solubility kinetic at 1 h (kinetic solubility) of 13 µM (≈ 6.47 µg/mL), an AUC(0-inf) at 24 h [1] of 5320 ng·h/mL and an AUC(0-t) at 24 h [1] of 5310 ng·h/mL. For the same compound, the Cmax at 24 h [1] was 5800 ng/mL, the Tmax at 24 h [1] was 15 min and the half-life at 24 h [1] was 35.4 min. The MRT inf at 24 h [1] was 88.2 min, the CL [1] was 15.7 mL/min/kg and the Vd [1] was 0.80 L/kg. The IC50 (WNT/β-catenin signaling [2]; [10]) was 0.17 nM, the IC50 (WNT/β-catenin signaling [2]; [11]) was 0.169 nM and the IC50 (TNKS2) was 1.6 nM.

For CCOc1ccc(-c2nnc([C@H]3C[C@H](NC(=O)c4ccccn4)C3)n2-c2ccccc2F)nc1 [Compound 1], the “COLO 320DM cells GI25” value (COLO 320DM cells) is given as 94 nM, the GI50 (COLO 320DM cells) is given as 650 nM and the “Cerep Safety panel inhibition of A2A” value (A2A) is given as 53%. The “microsomal stability mouse CLint” value ([3]; mouse) was 27 μL/min/mg protein, the Ames test [4] was “nongenotoxic” and the “Caco-2 A–B: Papp” value (Caco-2) was 39.5 10^–6 cm/s. The kinetic solubility [5] was >80 µM, the “Cerep Safety panel 44 targets (overall result)” value [6] was “clean” and the CL [7] was 34.8 mL/min/kg. The “microsomal stability human CLint” value [8] was < 5 μL/min/mg protein, the IC50 (WNT/β-catenin signaling [9]; HEK293 WNT/β-catenin signaling reporter assay) was 19 nM and the “HEK293 reporter assay pIC50 ± SEM” value (WNT/β-catenin signaling [9]) was 19 (7.75 ± 0.067).

For Cc1cccc(-c2nnc([C@H]3C[C@H](NC(=O)c4cccc5nccnc45)C3)n2-c2ccccc2F)n1 [Compound 31a, N-(trans-3-(4-(2-Fluorophenyl)-5-(6-methylpyridin-2-yl)-4H-1,2,4-triazol-3-yl)cyclobutyl)quinoxaline-5-carboxamide], the solubility kinetic (kinetic solubility) was > 80 µM, the AUC(0-inf) at 24 h [1] was 3400 ng·h/mL and the AUC(0-t) at 24 h [1] was 3400 ng·h/mL. For the same compound, the Cmax at 24 h [1] was 2770 ng/mL, the Tmax at 24 h [1] was 15 min and the half-life at 24 h [1] was 45.6 min. It also gave an MRT inf at 24 h [1] of 74.4 min, a CL [1] of 24.5 mL/min/kg and a Vd [1] of 1.61 L/kg. It also gave an IC50 (WNT/β-catenin signaling [2]; [10]) of 1.5 nM and an IC50 (TNKS2) of 1.7 nM.

For CCOc1ccc(-c2nnc([C@H]3C[C@H](NC(=O)c4ccnc5cccnc45)C3)n2-c2ccccc2F)nc1 [Compound 15a], the “metabolic stability in mouse microsomes” value [3] is given as “high metabolic instability”.

CCOc1ccc(-c2nnc([C@H]3C[C@H](NC(=O)c4ccnc5cccnc45)C3)n2-c2ccc(C)s2)nc1 [Compound 22a, N-(trans-3-(5-(5-Ethoxypyridin-2-yl)-4-(5-methylthiophen-2-yl)-4H-1,2,4-triazol-3-yl)cyclobutyl)-1,5-naphthyridine-4-carboxamide] gave a solubility kinetic at 1 h (kinetic solubility) of 50 µM (≈ 25.6 µg/mL), an AUC(0-inf) at 24 h [1] of 547 ng·h/mL and an AUC(0-t) at 24 h [1] of 543 ng·h/mL. The Cmax at 24 h [1] was 779 ng/mL, the Tmax at 24 h [1] was 15 min and the half-life at 24 h [1] was 70.2 min. For the same compound, the MRT inf at 24 h [1] was 83.4 min, the CL [1] was 152 mL/min/kg and the Vd [1] was 15.5 L/kg. It also gave an IC50 (WNT/β-catenin signaling [2]; [10]) of 0.81 nM and an IC50 (TNKS2) of 0.73 nM.

In the case of CCOc1ccc(-c2nnc([C@H]3C[C@H](NC(=O)c4ccnc5cc(F)cnc45)C3)n2-c2ccncc2)nc1 [Compound 18b, N-(trans-3-(5-(5-Ethoxypyridin-2-yl)-4-(pyridin-4-yl)-4H-1,2,4-triazol-3-yl)cyclobutyl)-7-fluoro-1,5-naphthyridine-4-carboxamide], the solubility kinetic (kinetic solubility) is reported as > 80 µM, the AUC(0-inf) at 24 h [1] is reported as 322 ng·h/mL and the AUC(0-t) at 24 h [1] is reported as 319 ng·h/mL. For the same compound, the Cmax at 24 h [1] was 285 ng/mL, the Tmax at 24 h [1] was 15 min and the half-life at 24 h [1] was 60 min. For the same compound, the MRT inf at 24 h [1] was 93.6 min, the CL [1] was 260 mL/min/kg and the Vd [1] was 22.4 L/kg. It also gave an IC50 (WNT/β-catenin signaling [2]; [10]) of 6 nM, an IC50 (WNT/β-catenin signaling [2]; [11]) of 6.4 nM and an IC50 (TNKS2) of 2.9 nM.
